# In PubChem BioAssay AID270 (DTP/NCI, 2004):
# “And” between values parts separate entries of the source, which are not always exact repeats. Identical values can stand only once. Records with an inconclusive call do not appear.
# Test system: BDF1 mice, s.c. Lewis lung carcinoma, T/C %
# Assay: NCI In Vivo Anticancer Drug Screen. Data for tumor model Lewis Lung Carcinoma (subcutaneous) in B6D2F1 (BDF1) mice
# In short: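 The value reflects a ratio in which the treated cohort's survival time or tumour size is compared against mice receiving only vehicle.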
smiles,measurement,setting,value
O=C(N/N=C/c1ccc(O)cc1O)c1cccnc1,T/C,"endpoint: median survival time, dose: 6.25 mg/kg/injection, schedule: Q01DX009 (ip), vehicle: olive oil, sesame oil, peanut oil, higher = longer survival",91 % of control
same,T/C,"endpoint: median survival time, dose: 25.0 mg/kg/injection, schedule: Q01DX009 (ip), vehicle: olive oil, sesame oil, peanut oil, higher = longer survival",101 % of control
C=C1C(=O)OC2C3OC(C)(CCC(O)C3COC(C)=O)CC(OC(=O)/C(=C/C)COC(C)=O)C12 (centres undefined),T/C,"endpoint: median survival time, dose: 3.12 mg/kg/injection, schedule: Q01DX009 (ip), vehicle: Klucel (hydroxypropylcellulose) (HPC), higher = longer survival",107 % of control
same,T/C,"endpoint: median survival time, dose: 3.13 mg/kg/injection, schedule: Q01DX009 (ip), vehicle: Klucel (hydroxypropylcellulose) (HPC), higher = longer survival",101 % of control
same,T/C,"endpoint: median survival time, dose: 6.25 mg/kg/injection, schedule: Q01DX009 (ip), vehicle: Klucel (hydroxypropylcellulose) (HPC), higher = longer survival",101 % of control
same,T/C,"endpoint: median survival time, dose: 12.5 mg/kg/injection, schedule: Q01DX009 (ip), vehicle: Klucel (hydroxypropylcellulose) (HPC), higher = longer survival",114 % of control
same,T/C,"endpoint: median survival time, dose: 25.0 mg/kg/injection, schedule: Q01DX009 (ip), vehicle: Klucel (hydroxypropylcellulose) (HPC), higher = longer survival",106 % of control
C=C[C@]1(C)C=C2CC[C@@H]3[C@](C)(CCC[C@@]3(C)C(=O)O)[C@H]2CC1,T/C,"endpoint: mean tumor weight, dose: 7.8 mg/kg/injection, schedule: Q01DX011 (ip), vehicle: saline, higher = larger tumour",73 % of control
same,T/C,"endpoint: mean tumor weight, dose: 15.6 mg/kg/injection, schedule: Q01DX011 (ip), vehicle: saline, higher = larger tumour",55 % of control
same,T/C,"endpoint: mean tumor weight, dose: 31.3 mg/kg/injection, schedule: Q01DX011 (ip), vehicle: saline, higher = larger tumour",43 % of control
same,T/C,"endpoint: mean tumor weight, dose: 62.5 mg/kg/injection, schedule: Q01DX011 (ip), vehicle: saline, higher = larger tumour",98 % of control and 102 % of control
same,T/C,"endpoint: mean tumor weight, dose: 125.0 mg/kg/injection, schedule: Q01DX011 (ip), vehicle: saline, higher = larger tumour",102 % of control
same,T/C,"endpoint: mean tumor weight, dose: 250.0 mg/kg/injection, schedule: Q01DX011 (ip), vehicle: saline, higher = larger tumour",82 % of control
Nc1nc(N)nc(N)n1,T/C,"endpoint: median survival time, dose: 100.0 mg/kg/injection, schedule: Q01DX009 (ip), vehicle: saline with Tween-80, higher = longer survival",103 % of control
same,T/C,"endpoint: median survival time, dose: 200.0 mg/kg/injection, schedule: Q01DX009 (ip), vehicle: saline with Tween-80, higher = longer survival",95 % of control
same,T/C,"endpoint: median survival time, dose: 400.0 mg/kg/injection, schedule: Q01DX009 (ip), vehicle: saline with Tween-80, higher = longer survival",98 % of control
Nc1nc(N)c(N=O)c(Nc2ccc(Cl)c(Cl)c2)n1,T/C,"endpoint: mean tumor weight, dose: 100.0 mg/kg/injection, schedule: Q01DX011 (ip), vehicle: carboxymethylcellulose (CMC), higher = larger tumour",23 % of control and 32 % of control
same,T/C,"endpoint: mean tumor weight, dose: 200.0 mg/kg/injection, schedule: Q01DX011 (ip), vehicle: carboxymethylcellulose (CMC), higher = larger tumour",31 % of control and 52 % of control
same,T/C,"endpoint: mean tumor weight, dose: 400.0 mg/kg/injection, schedule: Q01DX011 (ip), vehicle: carboxymethylcellulose (CMC), higher = larger tumour",32 % of control and 46 % of control
CC1CCC2C(C)C3C(CC4C5CC=C6CC(OC7OC(CO)C(O)C(OC8OC(CO)C(O)C(O)C8O)C7OC7OC(C)C(O)C(O)C7O)CCC6(C)C5CCC43C)N2C1 (centres undefined),T/C,"endpoint: mean tumor weight, dose: 54.0 mg/kg/injection, schedule: Q01DX011 (sc), vehicle: steriod suspending solution, higher = larger tumour",112 % of control
same,T/C,"endpoint: mean tumor weight, dose: 80.0 mg/kg/injection, schedule: Q01DX011 (sc), vehicle: steriod suspending solution, higher = larger tumour",69 % of control
same,T/C,"endpoint: mean tumor weight, dose: 120.0 mg/kg/injection, schedule: Q01DX011 (sc), vehicle: steriod suspending solution, higher = larger tumour",76 % of control
CCC(=O)NC1=C(N2CC2)C(=O)C(NC(=O)CC)=C(N2CC2)C1=O,T/C,"endpoint: mean tumor weight, dose: 1.8 mg/kg/injection, schedule: Q01DX011 (ip), vehicle: other, higher = larger tumour",72 % of control
same,T/C,"endpoint: mean tumor weight, dose: 2.7 mg/kg/injection, schedule: Q01DX011 (ip), vehicle: other, higher = larger tumour",54 % of control
same,T/C,"endpoint: mean tumor weight, dose: 4.0 mg/kg/injection, schedule: Q01DX011 (ip), vehicle: other, higher = larger tumour",27 % of control
same,T/C,"endpoint: mean tumor weight, dose: 6.0 mg/kg/injection, schedule: Q01DX011 (ip), vehicle: other, higher = larger tumour",28 % of control
C=CCCCCCCCCC(=O)O,T/C,"endpoint: mean tumor weight, dose: 50.0 mg/kg/injection, schedule: Q01DX011 (ip), vehicle: saline, higher = larger tumour",92 % of control
same,T/C,"endpoint: mean tumor weight, dose: 100.0 mg/kg/injection, schedule: Q01DX011 (ip), vehicle: saline, higher = larger tumour",91 % of control
same,T/C,"endpoint: mean tumor weight, dose: 200.0 mg/kg/injection, schedule: Q01DX011 (ip), vehicle: saline, higher = larger tumour",56 % of control
same,T/C,"endpoint: mean tumor weight, dose: 400.0 mg/kg/injection, schedule: Q01DX011 (ip), vehicle: saline, higher = larger tumour",84 % of control
SCc1ccccn1,T/C,"endpoint: mean tumor weight, dose: 37.8 mg/kg/injection, schedule: Q01DX011 (ip), vehicle: carboxymethylcellulose (CMC), higher = larger tumour",95 % of control
same,T/C,"endpoint: mean tumor weight, dose: 75.5 mg/kg/injection, schedule: Q01DX011 (ip), vehicle: carboxymethylcellulose (CMC), higher = larger tumour",97 % of control
same,T/C,"endpoint: mean tumor weight, dose: 150.0 mg/kg/injection, schedule: Q01DX011 (ip), vehicle: carboxymethylcellulose (CMC), higher = larger tumour",90 % of control
O=c1cc(CO)[nH]cc1O,T/C,"endpoint: mean tumor weight, dose: 25.0 mg/kg/injection, schedule: Q01DX011 (ip), vehicle: methylcellulose (MC), higher = larger tumour",81 % of control
same,T/C,"endpoint: mean tumor weight, dose: 50.0 mg/kg/injection, schedule: Q01DX011 (ip), vehicle: methylcellulose (MC), higher = larger tumour",77 % of control
same,T/C,"endpoint: mean tumor weight, dose: 100.0 mg/kg/injection, schedule: Q01DX011 (ip), vehicle: methylcellulose (MC), higher = larger tumour",63 % of control
same,T/C,"endpoint: mean tumor weight, dose: 500.0 mg/kg/injection, schedule: Q01DX011 (ip), vehicle: methylcellulose (MC), higher = larger tumour",62 % of control
same,T/C,"endpoint: mean tumor weight, dose: 600.0 mg/kg/injection, schedule: Q01DX011 (ip), vehicle: methylcellulose (MC), higher = larger tumour",82 % of control
same,T/C,"endpoint: mean tumor weight, dose: 700.0 mg/kg/injection, schedule: Q01DX011 (ip), vehicle: methylcellulose (MC), higher = larger tumour",115 % of control
